Experimental data taken from patent publication US8673913B2, “SHP-2 phosphatase inhibitor” (Case Western Reserve University, priority 2009, dated 2014).

Assays:
[1] = biological target: T1, SHP-2 PTP domain GST fusion protein (Homo sapiens, UniProt Q06124); experiment: fluorescence titration (quenching of SHP-2 fluorescence); format: binding; parameters: Purified SHP-2 PTP domain GST-fusion protein was diluted into 20 mM Tris-HCl; made in house; details: SHP-2 protein 3 μM, excitation 295 nm
T1 sequence (Q06124 247-517 limits assumed): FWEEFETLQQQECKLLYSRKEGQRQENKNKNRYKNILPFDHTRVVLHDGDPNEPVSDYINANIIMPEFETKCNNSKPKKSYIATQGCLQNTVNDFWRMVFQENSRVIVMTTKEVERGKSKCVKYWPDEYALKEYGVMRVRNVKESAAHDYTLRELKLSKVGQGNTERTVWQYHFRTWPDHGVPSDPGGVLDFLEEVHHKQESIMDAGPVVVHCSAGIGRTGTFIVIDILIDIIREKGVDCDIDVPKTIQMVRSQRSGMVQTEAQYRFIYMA
Experimental: For all experiments, Purified SHP-2 PTP domain GST-fusion protein was diluted into 20 mM Tris-HCl, pH 7.5. Fluorescence spectra were recorded with a Luminescence Spectrometer LS50 (Perkin-Elmer, Boston, Mass.). Titrations were performed by increasing the test compound concentration while maintaining the SHP-2 protein concentration at 3 μM. Contributions from background fluorescence of the inhibitors were accounted for by subtracting the fluorescence of the inhibitors alone from the of the protein-inhibitor solution. The excitation wavelength was 295 nm and fluorescence was monitored from 360 to 500 nm. All reported fluorescence intensities are relative values and are not corrected for wavelength variations in detector response.
To validate that the active compounds identified were binding directly to the SHP-2 protein, we determined whether the active compounds directly interacted with the SHP-2 PTP domain using fluorescence quenching and taking advantage of the four tryptophans in the PTP domain, with Trp248 located 15 Å from the putative pY+5 pocket and Trp423 located 8 Å from the phosphatase active site. […] Therefore, their binding to SHP-2 protein could not be determined using this measurement. Thus, the fluorescence quenching experiments indicate that at least four active compounds identified do directly bind to SHP-2, thereby leading to their biological activities.

[2] = system: SHP-2 (WT and D61G) in mouse embryonic fibroblasts; experiment: in vivo (immunocomplex) phosphatase assay: EGF-induced activation of SHP-2 in embryonic fibroblasts; format: cell-based; details: 100 μM, last 1 hour; WT and SHP-2D61G/D61G cells
Experimental: (§1) FIG. 5 illustrates in vivo effects of active compounds on SHP-2 activity and SHP-2-mediated signaling. (A) WT and mutant embryonic fibroblasts derived from activating mutation SHP-2 D61G knock-in mice were starved in serum-free medium overnight and were treated with the indicated compounds in the last 1 hour. Cells were then stimulated with EGF (20 ng/mL) for 10 min. Whole cell lysates were prepared and immunoprecipitated with anti-SHP-2 antibody. Immunoprecipitates were washed and then subjected to the in vitro phosphatase assay as described in the text. (B) Ba/F3 cells were deprived of IL-3 for 8 hours. The cells were treated with the indicated compounds 1 hour prior to the stimulation with IL-3 (2 ng/mL). Cells were harvested after the indicated periods of time. Whole cell lysates were prepared and examined for Erk activation with anti-phospho-Erk immunoblotting. The blot was striped and reprobed with anti-pan Erk antibody to examine protein loading.
For the in vivo phosphatase assay, mouse embryonic fibroblasts were used to assess the activities of the test compounds in inhibiting epidermal growth factor (EGF)-induced activation of SHP-2 catalytic activity. WT and mutant fibroblasts derived from activating mutation of SHP-2 D61G knock-in mice (SHP-2D61G/D61G)10 were starved in serum-free medium overnight and the tested compounds (100 μM) were added in the last 1 hour. […]

[3] = system: Erk activation in Ba/F3 cells; experiment: IL-3-induced Erk activation, anti-phospho-Erk immunoblotting; format: cell-based, murine; details: Ba/F3 cells preincubated 1 hour
Experimental: as §1
We next tested whether the active compounds are effective in cells. […] Activation of SHP-2 in response to EGF stimulation was determined using the immunocomplex phosphatase assay. Compared to WT SHP-2, catalytic activity of SHP-2 D61G mutant in the mutant cells was increased both at the basal level and following EGF stimulation (FIG. 5A), consistent with previous studies. […]

[4] = system: mouse embryonic fibroblasts, wildtype and SHP-2 E76K mutant; experiment: cell proliferation assay, embryonic fibroblasts wildtype and SHP-2 E76K (MTS); format: cell-based; details: 48 hours
Experimental: To test the effects of the active compounds on SHP-2-mediated cellular proliferation, Ba/F3, an IL-3 dependent hematopoietic cell line, mouse embryonic fibroblasts (MEFs), and H661 lung cancer cell line with SHP-2 activating mutation N58S were used for the assays. Cells were seeded into 96-well plates (2×10^4 cells/well) in the RPMI-1640 (for Ba/F3 cells) or DMEM (for MEFs and H661 cells) medium supplemented with 10% fetal bovine serum (FBS) and test compounds at various concentrations. For the Ba/F3 cell assay, recombinant mouse IL-3 (1 ng/mL) was included in the culture medium. Two days later, cell number was determined using the MTS cell proliferation kit (Promega Life Science, Madison, Wis.).
Mouse embryonic fibroblasts, wildtype and SHP-2 E76K mutant, were cultured in DMEM medium supplemented with active compounds at the indicated concentrations. DMSO was included at negative controls. Cell numbers were determined 48 hours later using the MTS assay. Shown are the results of a representative compound #324.

| SMILES | quenching of SHP-2 fluorescence [1] | EGF-induced activation of SHP-2 [2] | Erk activation by IL-3 [3] | sensitivity of E76K fibroblasts versus wild type fibroblasts [4] |
| --- | --- | --- | --- | --- |
| NS(=O)(=O)c1ccc(CCNC(=O)c2ccc(Cn3c(=S)[nH]c4ccc(Br)cc4c3=O)cc2)cc1 [#216] | strong quenching | blocked | suppressed |  |
| Cc1cc(C)c2c(c1)[nH]c1nnc(SCC(=O)NCc3cccs3)nc12 [#220] | strong quenching | blocked | suppressed |  |
| Cc1cc(C)c2[nH]c3nc(SCC(=O)Nc4cccc5ccccc45)nnc3c2c1 [#324] |  |  |  | more sensitive |
